These results are taken from EP2292225A1 (priority 1997, dated 1998).

The test has as its system balloon traumatized rabbit carotid artery. Format: in vivo.
[1] abbreviates: Group 7a: 10% wt/wt, three weeks.

The structures appear in SMILES notation. “Also recorded” adds a separate entry of the source. Like-named read-outs stand apart in the source and are kept apart here.

Take `C=C1[C@@H](C)[C@H]2[C@H](Cc3ccccc3)NC(=O)[C@]23OC(=O)/C=C/[C@H](O)CCC[C@@H](C)C/C=C/[C@H]3[C@@H]1O` [cytochalasin B]: the intimal proliferation result was “no intimal or adventital proliferation” (Group 1: 20 mg in 1 g bovine collagen gel, bovine collagen mesh wrap, 1 week); “minimal intimal and adventital proliferation” (Group 1: 20 mg in 1 g bovine collagen gel, bovine collagen mesh wrap, 2 weeks); “no intimal proliferation” (Group 1: 20 mg in 1 g bovine collagen gel, bovine collagen mesh wrap, three weeks); “moderate, irregular intimal proliferation” (Group 2: 30% wt/wt in silicone wrap, 3 weeks); “no significant intimal or adventitial proliferation” (Group 2: 30% wt/wt in silicone wrap, one week); “complete inhibition of intimal proliferation” (Group 2: 30% wt/wt in silicone wrap, two weeks). In addition, the intimal proliferation entry is recorded as “mild intimal proliferation” (Group 3: 8 mg in 100 mg pluronic gel, bovine collagen mesh wrap, one week); “moderate amount of intimal hyperplasia” (Group 3: 8 mg in 100 mg pluronic gel, bovine collagen mesh wrap, three weeks); “mild, irregular intimal proliferation” (Group 3: 8 mg in 100 mg pluronic gel, bovine collagen mesh wrap, two weeks); “no intimal proliferation” (Group 4: 100 mg (10% wt/wt) in 1 g silicone wrap, one week); “minimal to no intimal proliferation” (Group 4: 100 mg (10% wt/wt) in 1 g silicone wrap, three weeks); “minimal intimal proliferation” (Group 4: 100 mg (10% wt/wt) in 1 g silicone wrap, two weeks). The intimal proliferation entry is “no intimal proliferation for 2 weeks” (Group 7a: 10% wt/wt, one and two weeks); “mild irregular intimal proliferation” under setting [1]; “none to mild; also recorded: mild to moderate intimal proliferation” (Group 8a: 10% wrap for 2 weeks, removed, evaluated 2 weeks later, animals 1254, 1255, 1256); “moderate initmal proliferation” (Group 10: 10 mg in 1 g silicone wrap (1% wt/wt) for 2 weeks, removed, 2 weeks later, animal 1304); “moderate initmal proliferation; also recorded: moderate intimal proliferation; also recorded: marked intimal proliferation” (Group 11: 1% wrap for 2 weeks, removed, four weeks later, animals 1307, 1308, 1309). Besides, the re-endothelization entry is recorded as “approximately 30%” (Group 3: 8 mg in 100 mg pluronic gel, one week); less than 10% (Group 4: 10% wt/wt silicone wrap, three weeks); 100% (Group 10: 1% wrap for 2 weeks, removed, 2 weeks later, animal 1304). Further, the re-endothelized turned out to be 70% under setting [1] and 100% (Group 11: 1% wrap for 2 weeks, removed, four weeks later, animal 1308). Moreover, the “qualitative difference between test and control animals” value (Groups 10 and 11: 1% wt/wt silicone wrap for 2 weeks, removed, 2 or 4 weeks later) was “No significant difference”.
